Columns and labels:
[1] = cited from earlier work
human plasma proteins = details: cited from earlier work
[2] = Rat oral pharmacokinetics at 3 mg/kg; type: in vivo; details: fasted rats
Method: A rat study with oral administration at 3 mg/kg was performed. Two pharmaceutical formulations of the present invention, the crystalline compound and crushed BELSOMRA® tablets were administered and plasma concentrations were measured. Absorption following the administration of the pharmaceutical formulations of the present invention was immediate, while absorption for the crystalline and BELSOMRA® were slower.

Row | SMILES | mean absolute bioavailability ([1]; 10 mg) | mean t½ ([1]; 95% CI: 12 to 13) | median tmax ([1]; fasted conditions) | tmax range ([1]; fasted conditions) | change in AUC or Cmax with high-fat meal ([1]; high-fat meal) | delay in tmax with high-fat meal ([1]; high-fat meal) | mean volume of distribution ([1]; human, in vivo) | radiolabeled dose recovered in the feces ([1]; human, in vivo) | radiolabeled dose recovered in the urine ([1]; human, in vivo) | accumulation ([1]; once-daily dosing) | time to steady-state ([1]; once-daily dosing) | dose proportionality of exposure ([1]; range of 10-80 mg) | bound to human plasma proteins (human plasma proteins) | absorption after oral administration (in words) [2]
1 | Cc1ccc(-n2nccn2)c(C(=O)N2CCN(c3nc4cc(Cl)ccc4o3)CC[C@H]2C)c1 [Suvorexant, [(7R)-4-(5-chloro-2-benzoxazolyl)hexahydro-7-methyl-1H-1,4-diazepin-1-yl][5-methyl-2-(2H-1,2,3-triazol-2-yl)phenyl]methanone] | 82% | approximately 12 hours | 2 h | 0.5 to 6 h | no meaningful change | approximately 1.5 hours | approximately 49 liters | approximately 66% | 23% | 1- to 2 fold | ≤ 3 days | less than strictly dose-proportional | > 99% | –
2 | Cc1ccc(-n2nccn2)c(C(=O)N2CCN(c3nc4cc(Cl)ccc4o3)CC[C@H]2C)c1 [crystalline compound] | – | – | – | – | – | – | – | – | – | – | – | – | – | slower
